{"source": "ChEMBL document CHEMBL4152207", "about": "“Discovery of potent and selective BRD4 inhibitors capable of blocking TLR3-induced acute airway inflammation” (Eur J Med Chem, 2018)", "key": {"[1]": {"molecular_target": "Cannabinoid receptor 2 (Homo sapiens) (UniProt P34972)", "sequence (P34972 whole entry)": "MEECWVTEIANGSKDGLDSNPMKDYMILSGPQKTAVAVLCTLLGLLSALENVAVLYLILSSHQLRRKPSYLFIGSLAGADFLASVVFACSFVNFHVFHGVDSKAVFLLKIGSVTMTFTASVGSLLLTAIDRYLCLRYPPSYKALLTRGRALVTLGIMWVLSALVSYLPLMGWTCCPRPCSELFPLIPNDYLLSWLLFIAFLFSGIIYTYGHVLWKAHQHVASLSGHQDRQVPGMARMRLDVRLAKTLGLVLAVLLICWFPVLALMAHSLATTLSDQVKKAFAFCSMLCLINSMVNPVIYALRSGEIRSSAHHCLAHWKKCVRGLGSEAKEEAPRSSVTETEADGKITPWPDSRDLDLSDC", "test": "Displacement of [3H]WIN 55212-2 from human recombinant CB2 receptor at 10 uM after 120 mins by scintillation counting analysis relative to control"}, "[2]": {"tested_on": "Mus musculus", "test": "Hepatotoxicity in mouse at 1 to 50 mg/kg, ip dosed daily for 1 month by histological analysis", "type": "toxicity, organism-based", "settings": "in vivo"}, "[3]": {"species": "Cavia porcellus", "test": "Binding affinity to guinea pig Sodium channel site 2 at 10 uM by antagonist radioligand assay relative to control", "design": "scale not given: the % may be the effect or the level left"}}}
{"smiles": "Cc1cc(/N=N/c2ccc(S(=O)(=O)NC3CCCC3)cc2)c(N)cc1O", "values": [{"measurement": "Activity", "setting": "[1]", "value": 59.3, "unit": "%"}, {"measurement": "Activity", "setting": "[2]", "value": "Non-Toxic"}, {"measurement": "Activity", "setting": "[3]", "value": 27.7, "unit": "%"}]}
